From ChEMBL document CHEMBL6121052, “Design of ROS-Triggered Sesquiterpene Lactone SC Prodrugs as TrxR1 Covalent Inhibitors for the Treatment of Non-Small Cell Lung Cancer” (J Med Chem, 2025)
Calls of active or inactive are those of the source. The calls are words filed in the database; no cut-off is given here.

Legend:
A549 [1] = assay: Induction of apoptosis in human A549 cells assessed as decrease in BCl-2 expression at upto 10 uM incubated for 24 hrs by Western blot analysis; assay type: functional, cell-based
Mitochondrial membrane = assay: Induction of mitochondrial membrane potential loss in human A549 cells assessed as increase in green fluorescence upto 10 uM incubated for 24 hrs by JC-1 staining based confocal microscopy analysis; assay type: cell membranes
NCI-H1299 [2] = assay: Induction of apoptosis in human NCI-H1299 cells assessed as necrotic cells at 2.5 uM measured after 48 hrs by Annexin V/FITC staining based flow cytometric analysis (reference value: 0.62%); assay type: functional
NCI-H1299 [3] = assay: Induction of apoptosis in human NCI-H1299 cells assessed as necrotic cells at 5 uM measured after 48 hrs by Annexin V/FITC staining based flow cytometric analysis (reference value: 0.62%); assay type: functional
NCI-H1299 [4] = assay: Induction of ferroptosis in human NCI-H1299 cells assessed as effect on GPX4 protein expression at 10 uM incubated for 24 hrs by Western blotting analysis; assay type: functional, cell-based
A549 [5] = assay: Induction of apoptosis in human A549 cells assessed as necrotic cells at 10 uM measured after 48 hrs by Annexin V/FITC staining based flow cytometric analysis (reference value: 2.52 %); assay type: functional
A549 [6] = assay: Induction of apoptosis in human A549 cells assessed as early apoptotic cells at 5 uM measured after 48 hrs by Annexin V/FITC staining based flow cytometric analysis (reference value: 1.31 %); assay type: functional
NCI-H1299 [7] = assay: Induction of intracellular ROS generation in human NCI-H1299 cells upto 10 uM by DCFH-DA probe based fluorescence assay; assay type: functional, cell-based
NCI-H1299 [8] = assay: Antiproliferative activity against human NCI-H1299 cells assessed as decrease in EdU positive cells at 4 uM measured after 14 days by Hoechst 33342 staining based fluorescence microscopic analysis; assay type: functional, cell-based; conditions: time 14.0 day
NCI-H1299 [9] = assay: Induction of ferroptosis in human NCI-H1299 cells assessed as effect on SLC7A11 protein expression at 10 uM incubated for 24 hrs by Western blotting analysis; assay type: functional, cell-based
NCI-H1299 [10] = assay: Antitumor activity against human NCI-H1299 cells xenografted in BALB/c mouse assessed as decrease in GPX4 expression at 5 to 10 mg/kg, po administered every 2 days for 2 weeks by IHC analysis; assay type: functional, organism-based; conditions: dose 5-10 mg/kg
NCI-H1299 [11] = assay: Induction of apoptosis in human NCI-H1299 cells assessed as early apoptotic cells at 5 uM measured after 48 hrs by Annexin V/FITC staining based flow cytometric analysis (reference value: 1.14 %); assay type: functional
A549 [12] = assay: Induction of ferroptosis in human A549 cells assessed as cell death by MTT assay; assay type: functional, cell-based
[13] = Toxicity in BALB/c mouse assessed as change in viscera index at 5 to 10 mg/kg, po administered every 2 days for 2 weeks; assay type: organism-based; conditions: in vivo, 336 h, dose 5-10 mg/kg
[14] = Toxicity in BALB/c mouse assessed as body weight loss at 5 to 10 mg/kg, po administered every 2 days for 2 weeks; assay type: organism-based; conditions: in vivo, 336 h, dose 5-10 mg/kg
A549 [15] = assay: Antiproliferative activity against human A549 cells assessed as increase in cell viability in presence of NAC; assay type: functional, cell-based
A549 [16] = assay: Inhibition of colony formation in human A549 cells assessed as reduction in colony number at 4 uM incubated for 14 days by crystal violet staining based analysis; assay type: functional, cell-based; conditions: time 14.0 day
A549 [17] = assay: Induction of apoptosis in human A549 cells assessed as late apoptotic cells at 2.5 uM measured after 48 hrs by Annexin V/FITC staining based flow cytometric analysis (reference value: 5.37%); assay type: functional
NCI-H1299 [18] = assay: Induction of apoptosis in human NCI-H1299 cells assessed as early apoptotic cells at 10 uM measured after 48 hrs by Annexin V/FITC staining based flow cytometric analysis (reference value: 1.14 %); assay type: functional
A549 [19] = assay: Induction of ferroptosis in human A549 cells assessed as effect on GPX4 protein expression at 10 uM incubated for 24 hrs by Western blotting analysis; assay type: functional, cell-based
[20] = MRT (0 to t) in male Sprague-Dawley rat at 10 mg/kg, iv measured upto 24 hrs by LC-MS/MS analysis; assay type: ADME, organism-based; conditions: in vivo
NCI-H1299 [21] = assay: Antitumor activity against human NCI-H1299 cells xenografted in BALB/c mouse assessed as reduction in tumor volume at 5 to 10 mg/kg, po administered every 2 days for 2 weeks; assay type: functional, organism-based; conditions: dose 5-10 mg/kg
A549 [22] = assay: Induction of apoptosis in human A549 cells assessed as early apoptotic cells at 10 uM measured after 48 hrs by Annexin V/FITC staining based flow cytometric analysis (reference value: 1.31 %); assay type: functional
A549 [23] = assay: Induction of morphological changes in human A549 cells assessed as increase in number of contracted shapes upto 10 uM; assay type: functional, cell-based
A549 [24] = assay: Induction of apoptosis in human A549 cells assessed as necrotic cells at 2.5 uM measured after 48 hrs by Annexin V/FITC staining based flow cytometric analysis (reference value: 2.52 %); assay type: functional
A549 [25] = assay: Induction of intracellular ROS generation in human A549 cells upto 10 uM by DCFH-DA probe based fluorescence assay; assay type: functional, cell-based
NCI-H1299 [26] = assay: Antitumor activity against human NCI-H1299 cells xenografted in BALB/c mouse assessed as reduction in tumor weight at 5 to 10 mg/kg, po administered every 2 days for 2 weeks; assay type: functional, organism-based; conditions: dose 5-10 mg/kg
NCI-H1299 [27] = assay: Inhibition of colony formation in human NCI-H1299 cells assessed as reduction in colony number at 4 uM incubated for 14 days by crystal violet staining based analysis; assay type: functional, cell-based; conditions: time 14.0 day
[28] = Toxicity in BALB/c mouse assessed as lung damage at 5 to 10 mg/kg, po administered every 2 days for 2 weeks by H and E staining based analysis; assay type: organism-based; conditions: in vivo, 336 h, dose 5-10 mg/kg
NCI-H1299 [29] = assay: Induction of apoptosis in human NCI-H1299 cells assessed as increase in Bax expression at upto 10 uM incubated for 24 hrs by Western blot analysis; assay type: functional, cell-based
A549 [30] = assay: Induction of apoptosis in human A549 cells assessed as late apoptotic cells at 5 uM measured after 48 hrs by Annexin V/FITC staining based flow cytometric analysis (reference value: 5.37%); assay type: functional
A549 [31] = assay: Cytotoxicity against human A549 cells assessed as cell viability incubated for 48 hrs by MTT assay; assay type: functional, cell-based; conditions: A549, 48 h
A549 [32] = assay: Induction of morphological changes in human A549 cells assessed as decrease in cell density upto 10 uM by AO/EB staining based analysis; assay type: functional
[33] = Half life in male Sprague-Dawley rat at 10 mg/kg, iv measured upto 24 hrs by LC-MS/MS analysis; assay type: ADME, organism-based; conditions: in vivo
[34] = Toxicity in BALB/c mouse assessed as heart damage at 5 to 10 mg/kg, po administered every 2 days for 2 weeks by H and E staining based analysis; assay type: organism-based; conditions: in vivo, 336 h, dose 5-10 mg/kg
NCI-H1299 [35] = assay: Induction of ROS accumulation in human TrxR1 knockdown NCI-H1299 cells incubated for 24 hrs; assay type: functional, cell-based
NCI-H1299 [36] = assay: Induction of morphological changes in human NCI-H1299 cells assessed as decrease in cell density upto 10 uM by AO/EB staining based analysis; assay type: functional
[37] = Toxicity in BALB/c mouse assessed as liver damage at 5 to 10 mg/kg, po administered every 2 days for 2 weeks by H and E staining based analysis; assay type: organism-based; conditions: in vivo, 336 h, dose 5-10 mg/kg

CCCNC(=O)O[C@@H]1/C=C(\C)C[C@H]2C=C(C[C@@H]3OC(=O)[C@H](CSC(=S)N(C)C)[C@H]31)C(=O)O2
Activity (A549 [1]): Active | Activity (Mitochondrial membrane): Active | Activity (NCI-H1299 [2]): 1.2% | Activity (NCI-H1299 [3]): 1.45% | Activity (NCI-H1299 [4]): Active | Activity (A549 [5]): 3.24% | Activity (A549 [6]): 2.47% | Activity (NCI-H1299 [7]): Active | Activity (NCI-H1299 [8]): Active | Activity (NCI-H1299 [9]): Active | Activity (NCI-H1299 [10]): Active | Activity (NCI-H1299 [11]): 10.2% | Activity (A549 [12]): Active | Activity [13]: Non-toxic | Activity [14]: Non-toxic | Activity (A549 [15]): Active | inhibition (A549 [16]): Active | Activity (A549 [17]): 6.69% | Activity (NCI-H1299 [18]): 8.46% | Activity (A549 [19]): Active | MRT last at 24 h [20]: 4.15 h | Activity (NCI-H1299 [21]): Active | Activity (A549 [22]): 3.68% | Activity (A549 [23]): Active | Activity (A549 [24]): 4.09% | Activity (A549 [25]): Active | Activity (NCI-H1299 [26]): Active | inhibition (NCI-H1299 [27]): Active | Activity [28]: Non-toxic | Activity (NCI-H1299 [29]): Active | Activity (A549 [30]): 16.1% | IC50 (A549 [31]): 1.74 µM | Activity (A549 [32]): Active | half-life [33]: 3.85 h | Activity [34]: Non-toxic | Activity (NCI-H1299 [35]): Active | Activity (NCI-H1299 [36]): Active | Activity [37]: Non-toxic
